Experimental findings from patent publication US10865191B2, “Heterocyclic compounds useful as modulators of TNF alpha” (BRISTOL-MYERS SQUIBB COMPANY, priority 2015, dated 2020) are described below.

The target in the experiment is TNFα (Homo sapiens, UniProt P01375). The experiment is described as follows: TNF induced HEK-Blue assay (NF-kB-driven secreted alkaline phosphatase reporter). It counts as cell-based. As to conditions: TNFα 0.5 ng/mL, HEK-Blue-CD40L cells, 18 h. The gist of the method:
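HEK-Blue-CD40L cells (NF-kB-driven SEAP reporter), 20,000/well, added after 30 min pre-incubation of compound (0.004–25 μM final) with TNFα 0.5 ng/mL final at 37 °C; 18 h incubation. SEAP read with QUANTI-Blue at 620 nm; IC50 from 4-parameter logistic fit, normalized to unstimulated and stimulated DMSO controls.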

Where [1] appears, read: read-out: TNF induced HEK-Blue assay IC50 value.
Where [2] appears, read: TNF induced HEK-Blue assay IC50 value.

Where two headings read alike, the source gives them in different places.

TNFα, sequence (P01375 77-233 limits assumed): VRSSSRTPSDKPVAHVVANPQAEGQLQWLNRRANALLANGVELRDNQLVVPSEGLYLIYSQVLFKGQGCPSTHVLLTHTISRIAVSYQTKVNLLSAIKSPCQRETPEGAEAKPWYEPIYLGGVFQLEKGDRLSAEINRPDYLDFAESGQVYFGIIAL

Consider `C[C@@H](Nc1c(Cl)cnc2ccc(-c3cnc(C(C)(C)O)nc3)cc12)c1cc(CC(O)CO)ccc1F` (mixture of isomers) [Example 399, 3-(3-((R)-1-((3-chloro-6-(2-(2-hydroxypropan-2-yl)pyrimidin-5-yl)quinolin-4-yl)amino)ethyl)-4-fluorophenyl)propane-1,2-diol], for which the IC50 under setting [1] is less than 1000 nM.

Consider `C[C@@H](Nc1c(Cl)cnc2ccc(-c3cnc(C(C)(C)O)nc3)cc12)c1cc(C(N)=O)ccc1F` [Example 388, (R)-3-(1-((3-chloro-6-(2-(2-hydroxypropan-2-yl)pyrimidin-5-yl)quinolin-4-yl)amino)ethyl)-4-fluorobenzamide], for which, under setting [1], the IC50 is less than 1000 nM.

Regarding `CC(Nc1c(Cl)cnc2cc(F)c(-c3cnc(C(C)(C)O)nc3)cc12)c1ccccc1F` (stereo not drawn) [Example 250, 2-(5-(3-chloro-7-fluoro-4-((1-(2-fluorophenyl)ethyl)amino)quinolin-6-yl)pyrimidin-2-yl)propan-2-ol], the IC50 under setting [2] fell in the range of 1000 to 10000 nM.

In the case of `Cc1ccc(C)c(Nc2c(Cl)c(N)nc3ccc(-c4cnc(N5CCNC(=O)C5)nc4)cc23)c1` [Example 72, 4-(5-(2-amino-3-chloro-4-((2,5-dimethylphenyl)amino)quinolin-6-yl)pyrimidin-2-yl)piperazin-2-one], the IC50 under setting [1] is less than 1000 nM.

`CC(Nc1c(Cl)cnc2cc(F)c(-c3ccc(C(O)C4CC4)cc3)cc12)c1ccccc1F` (stereo not drawn) [Example 262, (4-(3-chloro-7-fluoro-4-((1-(2-fluorophenyl)ethyl)amino)quinolin-6-yl)phenyl)(cyclopropyl)methanol]: the IC50 under setting [1] was in the range of 1000 to 10000 nM.

`Cc1ncc(-c2ccc(F)c([C@@H](C)Nc3c(Cl)c(C)nc4ccccc34)c2)cn1` [Example 534, (R)-3-chloro-N-(1-(2-fluoro-5-(2-methylpyrimidin-5-yl)phenyl)ethyl)-2-methylquinolin-4-amine]: the IC50 under setting [1] is less than 1000 nM.

On to `C[C@@H](Nc1c(Cl)cnc2ccc(-c3cnc([C@]4(O)CCC[C@H]4O)nc3)cc12)c1ccccc1F` [Example 121, (1R,2R)-1-(5-(3-chloro-4-(((R)-1-(2-fluorophenyl)ethyl)amino)quinolin-6-yl)pyrimidin-2-yl)cyclopentane-1,2-diol], for which, under setting [1], the IC50 is less than 1000 nM.

For `C[C@@H](Nc1c(Cl)cnc2cc(F)c(-c3cnc(C(C)(C)O)nc3)nc12)c1cc(CO)ccc1F` [Example 505, (R)-2-(5-(7-chloro-3-fluoro-8-((1-(2-fluoro-5-(hydroxymethyl)phenyl)ethyl)amino)-1,5-naphthyridin-2-yl)pyrimidin-2-yl)propan-2-ol], the IC50 under setting [1] is less than 1000 nM.

Turning to `CC(Nc1ccnc2cc(F)c(-c3cnc(C4(O)CCOCC4)nc3)cc12)c1ccccc1F` (racemic) [Example 287, 4-(5-(7-fluoro-4-((1-(2-fluorophenyl)ethyl)amino)quinolin-6-yl)pyrimidin-2-yl)tetrahydro-2H-pyran-4-ol], the IC50 under setting [1] is 10000 to 25000 nM.

Turning to `CCCC(C)C(=O)c1c(Cl)c(C)nc2ccc(-c3cnc(C(C)(C)O)nc3)cc12` (racemic) [Example 356, ± 1-(3-Chloro-6-(2-(2-hydroxypropan-2-yl)pyrimidin-5-yl)-2-methylquinolin-4-yl)-2-methylpentan-1-one], the IC50 under setting [1] lay within 10000 to 25000 nM.

For the compound `COc1ccc(F)c([C@@H](C)Nc2c(Cl)cnc3ccc(-c4cnc(C(C)(C)O)nc4)cc23)c1` [Example 327, (R)-2-(5-(3-chloro-4-((1-(2-fluoro-5-methoxyphenyl)ethyl)amino)quinolin-6-yl)pyrimidin-2-yl)propan-2-ol], the IC50 under setting [1] was less than 1000 nM.

Take `CC(Nc1c(Cl)cnc2cc(F)c(-c3cnc(N4CCN(CC(=O)O)CC4)nc3)cc12)c1ccccc1F` (single isomer, unassigned) [Example 242, 2-(4-(5-(3-chloro-7-fluoro-4-((1-(2-fluorophenyl)ethyl)amino)quinolin-6-yl)pyrimidin-2-yl)piperazin-1-yl)acetic acid]: the IC50 under setting [1] was less than 1000 nM.

Regarding `CCc1ncc(-c2ccc3ncc(Cl)c(N[C@H](C)c4ccccc4F)c3c2)cn1` [Example 223, (R)-3-chloro-6-(2-ethylpyrimidin-5-yl)-N-(1-(2-fluorophenyl)ethyl) quinolin-4-amine], the IC50 under setting [1] is 10000 to 25000 nM.

As to `Cc1nc2ccc(-c3cnc(C(C)(C)O)nc3)cc2c(NC(C)c2cc(F)ccc2F)c1Cl` (racemic) [Example 317, 2-(5-(3-chloro-4-((1-(2,5-difluorophenyl)ethyl)amino)-2-methylquinolin-6-yl)pyrimidin-2-yl)propan-2-ol], the IC50 under setting [1] is less than 1000 nM.

For `Cc1nc2ccc(-c3cnc(C(C)(C)O)nc3)cc2c(N[C@@H](c2cc(Br)ccc2F)C(F)F)c1Cl` [Example 320, (S)-2-(5-(4-((1-(5-bromo-2-fluorophenyl)-2,2-difluoroethyl)amino)-3-chloro-2-methylquinolin-6-yl)pyrimidin-2-yl)propan-2-ol], the IC50 under setting [1] was less than 1000 nM.

For `CC(Nc1c(Cl)cnc2ccc(-c3cnc(C(C)(C)O)nc3)cc12)c1ncccc1F` (racemic) [Example 171, 2-(5-(3-chloro-4-((1-(3-fluoropyridin-2-yl)ethyl)amino)quinolin-6-yl)pyrimidin-2-yl)propan-2-ol], the IC50 under setting [1] is less than 1000 nM.

On to `Cc1nc2cc(F)c(-c3cnc(C(C)(C)O)nc3)nc2c(N[C@H](C)c2cc(C(=O)O)ccc2F)c1Cl` [Example 582, (R)-3-(1-((3-chloro-7-fluoro-6-(2-(2-hydroxypropan-2-yl)pyrimidin-5-yl)-2-methyl-1,5-naphthyridin-4-yl)amino)ethyl)-4-fluorobenzoic acid], for which, under setting [1], the IC50 lay within 10000 to 25000 nM.

For `CC(Nc1c(Cl)cnc2cc(F)c(-c3cnc(C4(O)CCC(C(=O)O)CC4)nc3)cc12)c1ccccc1F` (stereo not drawn) [Example 295, 4-(5-(3-chloro-7-fluoro-4-((1-(2-fluorophenyl)ethyl)amino)quinolin-6-yl)pyrimidin-2-yl)-4-hydroxycyclohexane-1-carboxylic acid], the 50% inhibitory concentration (IC50) under setting [1] was less than 1000 nM.

For `C[C@@H](Nc1c(Cl)cnc2ccc(-c3cnc(C(C)(C)O)nc3)cc12)c1cc(-c2ccnc(N)c2)ccc1F` [Example 350, (R)-2-(5-(4-((1-(5-(2-aminopyridin-4-yl)-2-fluorophenyl)ethyl)amino)-3-chloroquinolin-6-yl)pyrimidin-2-yl)propan-2-ol], under setting [1], the IC50 is less than 1000 nM.

Turning to `COC(=O)[C@H](CNC(C)=O)N1CCN(c2ncc(-c3ccc4ncc(Cl)c(N[C@H](C)c5ccccc5F)c4c3)cn2)CC1` [Example 109, methyl (S)-3-acetamido-2-(4-(5-(3-chloro-4-(((R)-1-(2-fluorophenyl)ethyl)amino)quinolin-6-yl)pyrimidin-2-yl)piperazin-1-yl)propanoate], the IC50 under setting [1] was 1000 to 10000 nM.

`CCOC(=O)c1nc2ccc(-c3cnc(C(C)(C)O)nc3)cc2c(N[C@H](C)c2cc(C#N)ccc2F)c1Cl` [Example 384, ethyl (R)-3-chloro-4-((1-(5-cyano-2-fluorophenyl)ethyl)amino)-6-(2-(2-hydroxypropan-2-yl)pyrimidin-5-yl)quinoline-2-carboxylate]: the IC50 under setting [1] lay in the range of 1000 to 10000 nM.

For `Cc1nc2cc(F)c(-c3cnc(C(C)(C)O)nc3)nc2c(N[C@H](C)c2ccccc2)c1Cl` [Example 213, (R)-2-(5-(7-chloro-3-fluoro-6-methyl-8-((1-phenylethyl)amino)-1,5-naphthyridin-2-yl)pyrimidin-2-yl)propan-2-ol], the IC50 under setting [1] was less than 1000 nM.

With `O=C(O)CN1CCN(c2ncc(-c3ccc4ncc(Cl)c(N[C@@H](c5ccccc5F)C(F)F)c4c3)cn2)CC1=O` [Example 76, (S)-2-(4-(5-(3-chloro-4-((2,2-difluoro-1-(2-fluorophenyl)ethyl)amino)quinolin-6-yl)pyrimidin-2-yl)-2-oxopiperazin-1-yl)acetic acid], the IC50 under setting [1] was less than 1000 nM.

As for `CC(Nc1c(Cl)cnc2ccc(-c3cnc(C(C)(C)O)nc3)cc12)c1ccccc1C(F)(F)F` (racemic) [Example 151, 2-(5-(3-chloro-4-((1-(2-(trifluoromethyl)phenyl)ethyl)amino)quinolin-6-yl)pyrimidin-2-yl)propan-2-ol], the IC50 under setting [2] is less than 1000 nM.

Consider `C[C@@H](Nc1c(Cl)cnc2ccc(-c3cnc(C(C)(C)O)nc3)cc12)c1cc(N)ccc1F` [Example 374, (R)-2-(5-(4-((1-(5-amino-2-fluorophenyl)ethyl)amino)-3-chloroquinolin-6-yl)pyrimidin-2-yl)propan-2-ol], for which the IC50 under setting [2] is less than 1000 nM.

As to `C[C@@H](Nc1c(Cl)cnc2cc(F)c(-c3cnc(C(C)(C)O)nc3)nc12)c1cccc(CO)c1` [Example 576, (R)-2-(5-(7-chloro-3-fluoro-8-((1-(3-(hydroxymethyl)phenyl)ethyl)amino)-1,5-naphthyridin-2-yl)pyrimidin-2-yl)propan-2-ol], the IC50 under setting [1] is less than 1000 nM.

For the compound `COc1ncc(-c2ccc(F)c([C@@H](C)Nc3c(Cl)cnc4ccccc34)c2)cc1N` [Example 521, (R)—N-(1-(5-(5-amino-6-methoxypyridin-3-yl)-2-fluorophenyl)ethyl)-3-chloroquinolin-4-amine], the IC50 under setting [1] was less than 1000 nM.

In the case of `CC(Nc1c(Cl)cnc2ncc(-c3ccc(C(C)(C)O)cc3)cc12)c1ccccc1F` (racemic) [Example 231, 2-(4-(6-chloro-5-((1-(2-fluorophenyl)ethyl)amino)-1,8-naphthyridin-3-yl)phenyl)propan-2-ol], the IC50 under setting [1] was 10000 to 25000 nM.

On to `CC(Nc1c(Cl)cnc2ccc(-c3cnc(N4CCNC(=O)C4)nc3)cc12)c1nc(C(N)=O)ccc1F` (single isomer, unassigned) [Example 25, 6-(1-((3-chloro-6-(2-(3-oxopiperazin-1-yl)pyrimidin-5-yl)quinolin-4-yl)amino)ethyl)-5-fluoropicolinamide], for which, under setting [1], the IC50 was 1000 to 10000 nM.

As for `O=C(O)CNCc1ccc(-c2ccc3ncc(Cl)c(N[C@@H](c4ccccc4F)C(F)F)c3c2)cc1` [Example 13, (S)-(4-(3-chloro-4-((2,2-difluoro-1-(2-fluorophenyl)ethyl)amino)quinolin-6-yl)benzyl)glycine], the IC50 under setting [1] lay in the range of 10000 to 25000 nM.
